pEC50: −log10 of the molar value. Like-named read-outs stand apart in the source and are kept apart here.
Columns and labels:
NL 4-3 = test: microbe, parasite or virus in culture; assay type: cell-based, HIV-1; details: for fold change: fold change in EC50
Protocol: (§1) The integrase encoding sequence was amplified from either wildtype HIV-1 (IIIB) or NL4.3 virus, or HXB2D site-directed mutant viruses containing mutations in integrase (such as T66I, S153Y, M154I, or combinations thereof) (Hazuda et al., Science 2000, 287, 646-650), or patient samples. Starting from RNA, extracted from virus supernatant or plasma using the QIAamp® viral RNA extraction kit (Qiagen), cDNA was synthesized by reverse transcription (Expand TM reverse transcriptase, 30 min at 42°C) with the primer 3'EGINT10 (SEQ ID NO 11), followed by a nested PCR. The outer PCR was performed with the primers 5'EGINT1 (SEQ ID NO 1) and 3'EGINT10 (SEQ ID NO 11) (ΔR-IN-vif construct) or 5'EGINT3 (SEQ ID NO 4) and 3'EGINT10 (SEQ ID NO 11) (ΔIN construct) (Expand™ High Fidelity PCR system), and 5 µl of the outer product was used for an inner PCR with primers 5'EGINT2 (SEQ ID NO 3) and 3'EGINT11 (SEQ ID NO 12) (ΔR-IN-vif construct) or 5'EGINT4 (SEQ ID NO 5) and 3'EGINT6 (SEQ ID NO 7) (ΔIN construct). In a second protocol the outer primers were identical as described above, the inner primers are 5'EGINT5 (SEQ ID NO 6) and 3'EGINT6 (SEQ ID NO 7). The amplicons can be used for genotyping and phenotyping. Cycling conditions for both PCRs are denaturation for 3 min at 95°C, followed by 30 cycles of 1 min 90°C, 30 sec 55°C, and 2 min 72°C. A final extension was performed at 72°C for 10 min. For recombination, PCR products are purified using the QiaQuick® 96 PCR BioRobot kit (Qiagen), according to the manufacturer's protocol. If the protocol starts from DNA containing the HIV material such as proviral DNA, the reverse transcriptase step is not needed. The nested approach is also not needed when starting from proviral DNA. The obtained amplicons were sequenced using the primers: In_seq1F (SEQ ID NO 17), In_seq2F (SEQ ID NO 18), In_seq3F (SEQ ID NO 19), IN_seq1R (SEQ ID NO 20), IN_seq2R (SEQ ID NO 21), and IN_seq3R (SEQ ID NO 22).
(§2) A ΔR-IN-vif or ΔIN deletion construct was generated by site-directed mutagenesis on the template pSV40HXB2D with the primers MUT-IN1 (SEQ ID NO 13) and MUT-IN2 (ΔR-IN-vif construct) (SEQ ID NO 14) or MUT-IN3 (SEQ ID NO 15) and MUT-IN4 (SEQ ID NO 16) (ΔIN construct) (protocol Site-directed mutagenesis kit, Stratagene). After DpnI digestion for removal of the methylated template DNA, the construct was digested with SmaI and ligated to circulize the plasmid. The plasmid was transformed into competent cells such as Top10 cells, and colonies were screened for the presence of the deletion construct. The IN-deletion construct was checked by sequence analysis with primers 5'EGINT1 (SEQ ID NO 1) or […] and 3'EGINT10 (SEQ ID NO 11) or 3'EGINT11 (SEQ ID NO 12). For use in recombination experiments, large-scale plasmid DNA preparations were linearized by SmaI digestion and recombined with PCR amplified integrase genes from wild type, mutant, or patient viruses. The plasmid containing the integrase deletion (ΔIN) has been deposited pSV40HXB2D-ΔIN. The sequence of said plasmid is 14377 nucleotides long. The ΔR-IN-vif deletion construct is 13975 nucleotides long. The pSV40HXB2D-ΔIN was deposited at the Belgian Coordinated Collections of Micro-Organisms located at the Universiteit Gent - Laboratorium voor Moleculaire Biologie on August 5, 2002 and the accession number is LMBP 4574.
(§3) Recombinant virus was produced by co-transfection by electroporation of the SmaI-linearized IN-deletion construct and the integrase amplicon into MT4 cells or MT4 cells equipped with an LTR driven reporter gene construct. Production of recombinant virus was evaluated by scoring the cytopathogenic effect (CPE) that is induced by HIV-infection of MT4 cells or by the LTR-driven reporter signal induced by HIV infection in MT4 reporter cells.

WT III B = test: microbe, parasite or virus in culture; assay type: cell-based, HIV-1; details: for fold change: fold change in EC50
Protocol: as §1, §2, §3

T661/M154I mutations = test: Antiviral assay with recombinant virus generated from site-directed mutant virus; assay type: cell-based, HIV
Protocol: as §1
(§4) Recombinant virus was produced by co-transfection by electroporation of the SmaI-linearized IN-deletion construct and the integrase amplicon into MT4 cells or MT4 cells equipped with an LTR driven reporter gene construct. Production of recombinant virus was evaluated by scoring the cytopathogenic effect (CPE) that is induced by HIV-infection of MT4 cells or by the LTR-driven reporter signal induced by HIV infection in MT4 reporter cells. Green fluorescent protein was used as the reporter signal. Viruses are harvested and titrated at maximum CPE. For recombination the deletion construct pSV40HXB2D-ΔIN was used. Recombination experiments were performed with amplicon from wildtype HIV IIIB and NL4.3, and patient sample 146514 generated by both primer sets. For each recombination 2 µg amplicon was co-transfected with 10 µg SmaI-digested pSV40HXB2D-ΔIN by electroporation into MT4-LTR-EGFP cells. Virus stocks were titrated and tested in an antiviral experiment on a reference panel including nucleoside reverse transcriptase inhibitors (NRTI), non- nucleoside reverse transcriptase inhibitors (NNRTI), protein inhibitor (PR), entry and integrase (IN) inhibitors (Table 2). Recombination was checked by nucleic acid sequence analysis using protocols known to the person skilled in the art. Sequencing primers which can be used are In_seq1F (SEQ ID NO 17), In_seq2F (SEQ ID NO 18), In_seq3F (SEQ ID NO 19), IN_seq1R (SEQ ID NO 20), IN_seq2R (SEQ ID NO 21), and IN_seq3R (SEQ ID NO 22).

M154I mutation = test: as above; assay type: cell-based, HIV
Protocol: as §1, §4

S153Y = test: as above; assay type: cell-based, HIV
Protocol: as §1, §4

T66I mutation = test: as above; assay type: cell-based, HIV
Protocol: as §1, §4

T66I/S153Y mutations = test: as above; assay type: cell-based, HIV
Protocol: as §1, §4

[1] = Human immunodeficiency virus 1, AVE 1, NL 4-3, primer set 3
[2] = Human immunodeficiency virus 1, NL43, AVE 4, NL4-3, primer set 4
[3] = Human immunodeficiency virus 1, AVE 3, WT III B, primer set 3
[4] = Human immunodeficiency virus 1, AVE 5, WT III B, primer set 4

SMILES | fold change (NL 4-3; AVE 1, NL 4-3, primer set 3) | fold change (NL 4-3; AVE 4, NL4-3, primer set 4) | pEC50 (NL 4-3; [1]) | pEC50 (NL 4-3; [2]) | fold change (WT III B; AVE 3, WT III B, primer set 3) | fold change (WT III B; AVE 5, WT III B, primer set 4) | pEC50 (WT III B; [3]) | pEC50 (WT III B; [4]) | further results
c1cc(CN2CCCNCCNCCCNCC2)ccc1CN1CCCNCCNCCCNCC1 [AMD3100] | 0,9 | 1,1 | 7.30 | 7.20 | 0,8 | 0,8 | 7.35 | 7.38 | 
CC(C)CN(C[C@@H](O)[C@H](Cc1ccccc1)NC(=O)O[C@H]1CCOC1)S(=O)(=O)c1ccc(N)cc1 [APV, Amprenavir] | 0,6 | 1,3 | 7.30 | 6.95 | 0,5 | 0,7 | 7.34 | 7.22 | 
O=C(O)C1=CC(=C(c2ccc(O)c(C(=O)O)c2)c2ccc(O)c(C(=O)O)c2)C=CC1=O [ATA] | 0,9 | 1,2 |  |  | 0,4 | 0,4 |  |  | pEC50 (NL 4-3; AVE 1, NL 4-3, primer set 3, read-out: EC 50): 5.71; pEC50 (NL 4-3; AVE 4, NL4-3, primer set 4, read-out: EC 50): 5.60; pEC50 (WT III B; AVE 3, WT III B, primer set 3, read-out: EC 50): 6.14; pEC50 (WT III B; AVE 5, WT III B, primer set 4, read-out: EC 50): 6.06
Cc1cn([C@H]2C[C@H](N=[N+]=[N-])[C@@H](CO)O2)c(=O)[nH]c1=O [AZT, Zidovudine] | 0,9 | 1,1 | 6.84 | 6.74 |  | 0,9 |  | 6.84 | 
Cc1cc(C#N)cc(C)c1Oc1nc(Nc2ccc(C#N)cc2)nc(N)c1Br [Compound 1, 4-[[6-amino-5-bromo-2-[(4-cyanophenyl)amino]-4-pyrimidinyl]oxy]-3,5-dimethyl-benzonitrile] | 1,0 | 2,3 |  | 8.64 | 0,9 | 1,2 |  |  | pEC50 (NL 4-3; AVE 1, NL 4-3, primer set 3): 9.00; pEC50 (WT III B; AVE 3, WT III B, primer set 3): 9.05; pEC50 (WT III B; AVE 5, WT III B, primer set 4): 8.92
Cc1cc(C#N)cc(C)c1Oc1nc(Nc2ccc(C#N)cc2)nc(N)c1Br [Compound 2, 4-[[6-amino-5-bromo-2-[(4-cyanophenyl)amino]-4-pyrimidinyl]oxy]-3,5-dimethyl-Benzonitrile] | 0,8 | 0,9 |  |  | 0,9 | 0,9 |  |  | pEC50 (NL 4-3; AVE 1, NL 4-3, primer set 3): 8.59; pEC50 (NL 4-3; AVE 4, NL4-3, primer set 4): 8.55; pEC50 (WT III B; AVE 3, WT III B, primer set 3): 8.55; pEC50 (WT III B; AVE 5, WT III B, primer set 4): 8.54
Nc1ccn([C@@H]2CS[C@H](CO)O2)c(=O)n1 [Compound 3TC, Lamivudine] | 0,6 | 2,0 | 6.09 | 5.56 | 0,3 | 1,2 | 6.42 | 5.77 | 
CC(C)Oc1ccc(Cc2ccccc2)cc1C(=O)CC(=O)C(=O)O [Compound 4, 2-(1-methylethyloxy)-α,γ dioxo-5-(phenylmethyl)-benzenebutanoic acid] | 0,6 | 0,9 | 6.76 | 6.62 | 0,4 | 0,7 | 6.97 | 6.73 | fold increase in EC50 (T661/M154I mutations): 10 fold; fold increase in EC50 (M154I mutation): 3 fold; fold increase in EC50 (S153Y): 5 fold; fold increase in EC50 (T66I mutation): 2 fold; fold increase in EC50 (T66I/S153Y mutations): 10 fold
O=c1[nH]cnc2c1ncn2[C@H]1CC[C@@H](CO)O1 [DDI, Didanosine] | 0,7 | 1,6 | 5.47 | 5.10 | 0,5 | 1,6 | 5.60 | 5.12 | 
CC(C)(C)NC(=O)[C@@H]1CN(Cc2cccnc2)CCN1C[C@@H](O)C[C@@H](Cc1ccccc1)C(=O)N[C@H]1c2ccccc2C[C@H]1O [IDV, Indinavir] | 0,7 | 1,2 | 7.50 | 7.29 | 0,4 | 0,9 | 7.74 | 7.38 | 
Cc1ccnc2c1NC(=O)c1cccnc1N2C1CC1 [NVP, Nevirapine] | 1,1 | 1,7 | 7.01 | 6.82 | 0,8 | 1,6 | 7.18 | 6.87 | 
CC(C)c1nc(CN(C)C(=O)N[C@H](C(=O)N[C@@H](Cc2ccccc2)C[C@H](O)[C@H](Cc2ccccc2)NC(=O)OCc2cncs2)C(C)C)cs1 [RTV, ritonavir] | 0,6 | 1,2 | 7.06 | 6.77 | 0,3 | 1,0 | 7.35 | 6.81 | 
CC(C)(C)NC(=O)[C@@H]1C[C@@H]2CCCC[C@@H]2CN1C[C@@H](O)[C@H](Cc1ccccc1)NC(=O)[C@H](CC(N)=O)NC(=O)c1ccc2ccccc2n1 [SQV, Saquinavir] | 1,2 | 1,9 | 7.63 | 7.41 | 0,7 | 1,8 | 7.89 | 7.45 | 

Source: patent EP1285971B1, “Methods for the phenotypic and genotypic assessment of the drug sensitivity of HIV integrase variants” (Tibotec Pharmaceuticals Ltd., priority 2001, dated 2003)
